Assay results: patent US11324750B2, “Compositions and methods for the treatment of severe acute respiratory syndrome coronavirus 2 (SARS-CoV-2) infection” (Children's Hospital Medical Center, priority 2020, dated 2022)

System: severe COVID-19 patients
Assay: Randomized controlled trial, safety: adverse events up to day 28
Format: in vivo, human
Conditions: for ALT increase, % patients / ALT increase, n patients / AST increase, % patients / AST increase, n patients / Acute heart failure, n patients / Alkaline phosphatase increase, % patients / Alkaline phosphatase increase, n patients / Anemia, % patients / Anemia, n patients / Chemical laboratory abnormalities, % patients / Chemical laboratory abnormalities, n patients / Decreased appetite, % patients / Decreased appetite, n patients / Dizziness, % patients / Dizziness, n patients / Headache, % patients / Headache, n patients / Hematological adverse events, % patients / Hematological adverse events, n patients / Hypercholesterolemia, % patients / Hypercholesterolemia, n patients / Hypertension, % patients / Hypertension, n patients / Hypertriglyceridemia, n patients / Hypoalbuminemia, % patients / Hypoalbuminemia, n patients / Hypocalcemia, % patients / Hypocalcemia, n patients / Hypochloremia, % patients / Hypochloremia, n patients / Hypokalemia, % patients / Hypokalemia, n patients / Lymphocytopenia, % patients / Lymphocytopenia, n patients / Nausea, % patients / Nausea, n patients / Neutrocytopenia, % patients / Neutrocytopenia, n patients / Rash, % patients / Rash, n patients / Secondary Infection, n patients / Sepsis, n patients / Serious adverse events, n patients / Shock, n patients / Thrombocytopenia, % patients / Thrombocytopenia, n patients / γ-GT increase, % patients / γ-GT increase, n patients / Adverse events, % patients / Adverse events, n patients: N = 20, through day 28; for Adverse events, % patients / Adverse events, n patients: line above headache, dizziness, rash, nausea, decreased appetite, hypertension
From the text: As of the effective date of this application, no therapeutics have yet been proven effective for the treatment of severe COVID-19 with cytokine storm. Ruxolitinib, a potent and selective oral inhibitor of Janus kinase (JAK) 1 and JAK2, was proposed by Applicant to be beneficial in the treatment of cytokine storm. Applicant conducted a prospective, multicenter, single-blind, randomized controlled trial involving participants diagnosed as severe COVID-19 patients. The enrolled patients were randomly separated into two groups with a 1:1 allocation by an independent statistician in blocks of 4 for all 3 sites. Study number and treatment allocation codes were provided in sequentially numbered opaque envelops. Intervention group is treated with ongoing oral intake 5 mg of ruxolitinib (Jakafi®, Novartis Pharma Stein AG, Switzerland) twice a day based on the standard-of-care (SoC); the control group is treated with placebo plus SoC. The primary endpoint was the incidence of serious adverse events occurring up to 28 days and the time to clinical improvement. The secondary endpoint is the overall mortality at D28. This trial is registered at www.chictr.org.cn as ChiCTR-OPN-2000029580.
Procedures. The first day of randomization was designated as D0. The second and the fourth day after randomization were designated D1 and D3, respectively. Dx referred to the day when either disease progressed according to the Chinese management guideline for COVID-19 (version 5.0) or defined as a one-category increase on the seven-category scale. Dend was the day before discharge. The enrolled patients were randomly separated into two groups: the treatment group (group B) received oral intake of ruxolitinib (Jakafi®, Novartis Pharma Stein AG, Switzerland) 5 mg twice a day plus standard-of-care (SoC); the control group (group A) is treated with placebo twice a day with SoC. The SoC included supplemental oxygen, noninvasive and invasive ventilation, corticosteroid, antibiotic agents, vasopressor support, renal-replacement therapy, and extracorporeal membrane oxygenation (ECMO) etc. Safety was monitored daily by two independent senior physicians from the trial center. Adverse events were classified according to the National Cancer Institute Common Terminology Criteria for Adverse Events, version 5.0. Non-contrast enhanced chest CT examinations were performed on D0 and followed-up at least once within two weeks. Additional chest CT may be performed if the condition deteriorated. All CT images were reviewed using Picture archiving and communication system (PACS). The CT features of improvement were evaluated by two independent senior radiologists blindly, which should at least meet one of the following criteria: decreased presence of ground-glass opacities (GGO), decreased lung opacification, reduced density of consolidation or decreased pleural effusion with existence of fibrous stripes^29. Peripheral blood was taken from patients on D1, D3, Dx and/or Dend for the determination of viral load by one-step RT-ddPCR, SARS-CoV-2-specific IgM and IgG by paramagnetic particle chemiluminescent immunoassay (CLIA) and cytokines measurements by Luminex FlEXMAP 3D system. Every participant's data is filled in one case record form (CRF). All the CRF tables were inputted and saved by researchers into an electronic data capture system (EDCS) and validated by a trial staff, including demographics, medical history, daily clinical findings, oximetric measurements and laboratory data involving complete blood count, serum biochemical parameters and high sensitivity C-reactive protein (hsCRP) etc.
Outcomes. The primary safety endpoint was the incidence of serious adverse events occurring up to 28 days. Safety outcomes included adverse events that occurred during treatment, serious adverse events and premature discontinuation of treatment. […]

[1] = Grade 3-4, listed as ruxolitinib

## N#CC[C@H](C1CCCC1)n1cc(-c2ncnc3[nH]ccc23)cn1 [Ruxolitinib, (3R)-3-cyclopentyl-3-[4-(7H-pyrrolo[2,3-d]pyrimidin-4-yl)pyrazol-1-yl]propanenitrile]
Any Grade
  ALT increase, % patients: (35.0%)
  ALT increase, n patients: 7
  AST increase, % patients: (15.0%)
  AST increase, n patients: 3
  Acute heart failure, n patients: 0
  Alkaline phosphatase increase, % patients: (10.0%)
  Alkaline phosphatase increase, n patients: 2
  Anemia, % patients: (55.0%)
  Anemia, n patients: 11
  Chemical laboratory abnormalities, % patients: (50.0%)
  Chemical laboratory abnormalities, n patients: 10
  Decreased appetite, % patients: (5.0%)
  Decreased appetite, n patients: 1
  Dizziness, % patients: (10.0%)
  Dizziness, n patients: 2
  Headache, % patients: (5.0%)
  Headache, n patients: 1
  Hematological adverse events, % patients: (65.0%)
  Hematological adverse events, n patients: 13
  Hypercholesterolemia, % patients: (20.0%)
  Hypercholesterolemia, n patients: 4
  Hypertension, % patients: (5.0%)
  Hypertension, n patients: 1
  Hypertriglyceridemia, n patients: 0
  Hypoalbuminemia, % patients: (5.0%)
  Hypoalbuminemia, n patients: 1
  Hypocalcemia, % patients: (5.0%)
  Hypocalcemia, n patients: 1
  Hypochloremia, % patients: (5.0%)
  Hypochloremia, n patients: 1
  Hypokalemia, % patients: (5.0%)
  Hypokalemia, n patients: 1
  Lymphocytopenia, % patients: (5.0%)
  Lymphocytopenia, n patients: 1
  Nausea, % patients: (10.0%)
  Nausea, n patients: 2
  Neutrocytopenia, % patients: (5.0%)
  Neutrocytopenia, n patients: 1
  Rash, % patients: (10.0%)
  Rash, n patients: 2
  Secondary Infection, n patients: 0
  Sepsis, n patients: 0
  Serious adverse events, n patients: 0
  Shock, n patients: 0
  Thrombocytopenia, % patients: (20.0%)
  Thrombocytopenia, n patients: 4
  γ-GT increase, % patients: (10.0%)
  γ-GT increase, n patients: 2
  Adverse events, % patients: (35.0%)
  Adverse events, n patients: 7
Grade 1-2
  ALT increase, % patients: (35.0%)
  ALT increase, n patients: 7
  AST increase, % patients: (15.0%)
  AST increase, n patients: 3
  Acute heart failure, n patients: 0
  Alkaline phosphatase increase, % patients: (10.0%)
  Alkaline phosphatase increase, n patients: 2
  Anemia, % patients: (55.0%)
  Anemia, n patients: 11
  Chemical laboratory abnormalities, % patients: (50.0%)
  Chemical laboratory abnormalities, n patients: 10
  Decreased appetite, % patients: (5.0%)
  Decreased appetite, n patients: 1
  Dizziness, % patients: (10.0%)
  Dizziness, n patients: 2
  Headache, % patients: (5.0%)
  Headache, n patients: 1
  Hematological adverse events, % patients: (60.0%)
  Hematological adverse events, n patients: 12
  Hypercholesterolemia, % patients: (20.0%)
  Hypercholesterolemia, n patients: 4
  Hypertension, n patients: 0
  Hypertriglyceridemia, n patients: 0
  Hypoalbuminemia, % patients: (5.0%)
  Hypoalbuminemia, n patients: 1
  Hypocalcemia, % patients: (5.0%)
  Hypocalcemia, n patients: 1
  Hypochloremia, % patients: (5.0%)
  Hypochloremia, n patients: 1
  Hypokalemia, % patients: (5.0%)
  Hypokalemia, n patients: 1
  Lymphocytopenia, % patients: (5.0%)
  Lymphocytopenia, n patients: 1
  Nausea, % patients: (10.0%)
  Nausea, n patients: 2
  Neutrocytopenia, % patients: (5.0%)
  Neutrocytopenia, n patients: 1
  Rash, % patients: (10.0%)
  Rash, n patients: 2
  Secondary Infection, n patients: 0
  Sepsis, n patients: 0
  Serious adverse events, n patients: 0
  Shock, n patients: 0
  Thrombocytopenia, % patients: (20.0%)
  Thrombocytopenia, n patients: 4
  γ-GT increase, % patients: (10.0%)
  γ-GT increase, n patients: 2
  Adverse events, % patients: (35.0%)
  Adverse events, n patients: 7
Grade 3-4
  ALT increase, n patients: 0
  AST increase, n patients: 0
  Acute heart failure, n patients: 0
  Alkaline phosphatase increase, n patients: 0
  Anemia, n patients: 0
  Chemical laboratory abnormalities, n patients: 0
  Decreased appetite, n patients: 0
  Dizziness, n patients: 0
  Headache, n patients: 0
  Hematological adverse events, % patients: 5.0%
  Hematological adverse events, n patients: 1
  Hypercholesterolemia, n patients: 0
  Hypertension, % patients: 5.0%
  Hypertension, n patients: 1
  Hypertriglyceridemia, n patients: 0
  Hypoalbuminemia, n patients: 0
  Hypocalcemia, n patients: 0
  Hypochloremia, n patients: 0
  Hypokalemia, n patients: 0
  Lymphocytopenia, % patients: 5.0%
  Lymphocytopenia, n patients: 1
  Nausea, n patients: 0
  Neutrocytopenia, n patients: 0
  Rash, n patients: 0
  Secondary Infection, n patients: 0
  Sepsis, n patients: 0
  Serious adverse events, n patients: 0
  Shock, n patients: 0
  Thrombocytopenia, n patients: 0
  γ-GT increase, n patients: 0
  Adverse events, n patients: 0
[1]
  Hematological adverse events, n patients: 2
  Hypertension, n patients: One
All ruxolitinib recipients, lymphocytopenia and hypertension, transient and reversible
  Adverse events at grade 3-4, number of events: two
From randomization to D28, primary safety endpoint
  Patients who reported adverse events, %: 80%
Primary safety endpoint
  Unexpected adverse events: No significant unexpected adverse events
Ruxolitinib with SoC treatment
  Tolerability: well tolerated
